Measured values taken from patent publication US11459338B2, “Heterocyclic compounds as PRMT5 inhibitors” (JUBILANT EPISCRIBE LLC, priority 2018, dated 2022).
Where two headings read alike, the source gives them in different places.

Assays:
[1] = system: Z-138 cells; test: Z-138 long term proliferation assay (Cell Titer Glo); format: cell-based; settings: Homo sapiens; for GI50: 192 h, Z-138 cells, cell viability, day 8, read-out: PRMT5 Z138 GI50 Day 8 μM; for IC50: Z-138, 192 h, summary of Table 1, read-out: IC50 value (all the three assays): Z138 GI50 Day 8
Summary of the method: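 Z-138 cells exposed to ten-point 3-fold dilutions (top 10 μM, 0.3% DMSO) for 96 h at 37° C., 5% CO2, then re-dosed for four more days.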

[2] = target: T1, PRMT5/MEP50 (Homo sapiens, UniProt O14744); test: PRMT5/MEP50 enzyme assay on peptide substrates (3H-SAM Flashplate); format: biochemical; settings: PRMT5/MEP50 10 nM, H4 1-15aa peptide 100 nM, 3H-SAM 1 μM
T1 construct: Full-length human PRMT5 (NP_006100)

[3] = system: Symmetric di-methyl arginine in Z-138 cells; test: Z-138 methylation assay, ELISA for detection of symmetric di-methyl arginine; format: cell-based; settings: Homo sapiens
Procedure: General reagents. […] Iscove's Modified Dulbecco's Medium (IMDM), Horse serum, penicillin-streptomycin, PBS and TMB-ELISA substrate solution were purchased from ThermoFisher Scientific. Symmetric di-methyl arginine antibody was purchased from Cell Signaling Technologies.Anti-SNRPD3/SmD3 antibody was purchased from Sigma-Aldrich.
ELISA for detection of Symmetric di-methyl arginine. […] A compound source plate was prepared by performing ten-point 3-fold dilution in DMSO, such that the final top concentration of the compound was 10 μM, and DMSO was 0.3%. The total volume of compounds added was 20 μL. The cells were incubated for 96 h at 37° C., 5% CO2. Z-138 cells were directly lysed in media with 3× Lysis Buffer (1×: 10 mM HEPES pH7.9, 5 mM MgCl2, 1M NaCl, 0.25M Sucrose, 1% Triton X-100, 1 mM PMSF, Protease & Phosphatase inhibitors). […] Plates were incubated at room temperature for a minimum of 3 h and then washed with PBS-Tween 20 (0.05%). The plates were blocked with 5% BSA at room temperature for 1 h, washed with PBS-Tween 20 and incubated with primary antibody at 4 C overnight.

[4] = Z-138 cells, 96 h (day 4), read-out: PRMT5 Z138 SDMA ELISA Day 4 μM
[5] = Z-138, 96 h, summary of Table 1, read-out: IC50 value (all the three assays): Z138 SDMA ELISA Day 4

T1 sequence (O14744 whole entry): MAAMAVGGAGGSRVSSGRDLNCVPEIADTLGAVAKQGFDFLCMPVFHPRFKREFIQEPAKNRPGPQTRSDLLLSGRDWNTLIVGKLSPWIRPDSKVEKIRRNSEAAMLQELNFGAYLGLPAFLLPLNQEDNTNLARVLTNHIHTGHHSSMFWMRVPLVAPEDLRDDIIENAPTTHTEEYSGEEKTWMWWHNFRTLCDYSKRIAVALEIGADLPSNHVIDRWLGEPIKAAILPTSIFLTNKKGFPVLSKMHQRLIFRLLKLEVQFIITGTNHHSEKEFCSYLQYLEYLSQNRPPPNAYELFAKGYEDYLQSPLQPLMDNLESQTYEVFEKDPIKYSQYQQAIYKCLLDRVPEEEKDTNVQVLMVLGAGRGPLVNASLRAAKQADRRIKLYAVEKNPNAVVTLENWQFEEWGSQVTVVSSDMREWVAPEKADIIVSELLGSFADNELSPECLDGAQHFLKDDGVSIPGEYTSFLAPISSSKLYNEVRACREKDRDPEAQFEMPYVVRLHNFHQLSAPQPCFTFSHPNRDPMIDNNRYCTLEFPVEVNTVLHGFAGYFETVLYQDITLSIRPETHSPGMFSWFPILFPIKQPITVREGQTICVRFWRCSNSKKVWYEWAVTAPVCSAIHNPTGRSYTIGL
T1 sequence (Q9BQA1 whole entry partner): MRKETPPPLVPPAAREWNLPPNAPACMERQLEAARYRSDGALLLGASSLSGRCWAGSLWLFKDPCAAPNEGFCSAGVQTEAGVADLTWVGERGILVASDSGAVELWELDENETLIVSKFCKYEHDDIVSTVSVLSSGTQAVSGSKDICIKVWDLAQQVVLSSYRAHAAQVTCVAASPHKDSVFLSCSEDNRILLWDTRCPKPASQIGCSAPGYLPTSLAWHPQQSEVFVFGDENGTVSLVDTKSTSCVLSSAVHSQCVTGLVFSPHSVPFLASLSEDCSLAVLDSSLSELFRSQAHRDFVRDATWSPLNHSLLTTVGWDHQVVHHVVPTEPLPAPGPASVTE

Structure (SMILES) | IC50 [2] [nM] | IC50 [3, 4] [nM] | IC50 [3, 5] [nM] | GI50 [1] [nM] | IC50 [1] [nM]
CC(C)N1CCn2cc(C(=O)NCC(O)CN3CCc4ccccc4C3)nc2C1 (stereo not drawn) [Example 113, N-(3-(3,4-dihydroisoquinolin-2(1H)-yl)-2-hydroxypropyl)-7-isopropyl-5,6,7,8-tetrahydroimidazo [1,2-a] pyrazine-2-carboxamide] | > 5000 | 1000 to 5000 | – | > 5000 | –
O=C(NC[C@H](O)CN1CCc2ccccc2C1)c1cn2c(n1)CCC(C(F)(F)F)C2 (stereo partly drawn) [Example 114, N—((S)-3-(3,4-dihydroisoquinolin-2(1H)-yl)-2-hydroxypropyl)-6-(trifluoromethyl)-5,6,7,8-tetrahydroimidazo[1,2-a]pyridine-2-carboxamide] | 1000 to 5000 | 10 to 1000 | – | 10 to 1000 | –
O=C(NC[C@H](O)CN1CCc2ccccc2C1)c1cn2c(n1)CCC(c1ccc(F)cc1)C2 (stereo partly drawn) [Example 115, N—((S)-3-(3,4-dihydroisoquinolin-2(1H)-yl)-2-hydroxypropyl)-6-(4-fluorophenyl)-5,6,7,8-tetrahydroimidazo[1,2-a]pyridine-2-carboxamide] | 10 to 1000 | 10 to 1000 | 10 to 1000 | 10 to 1000 | 10 to 1000
O=C(NC[C@H](O)CN1CCc2ccccc2C1)c1cn2c(n1)CC[C@@H](C(F)(F)F)C2 [Example 121A, (R)—N—((S)-3-(3,4-dihydroisoquinolin-2(1H)-yl)-2-hydroxypropyl)-6-(trifluoromethyl)-5,6,7,8-tetrahydroimidazo[1,2-a]pyridine-2-carboxamide] | 10 to 1000 | 10 to 1000 | 10 to 1000 | 10 to 1000 | 10 to 1000

More lines, main results first:

IC50 [2] [nM] | IC50 [3, 4] [nM] | IC50 [3, 5] [nM] | Structure (SMILES) | GI50 [1] [nM] | IC50 [1] [nM]
1000 to 5000 | 10 to 1000 | – | O=C(NC[C@H](O)CN1CCc2ccccc2C1)c1cn2c(n1)COC(c1ccccc1)C2 (stereo partly drawn) [Example 112, N—((S)-3-(3,4-dihydroisoquinolin-2(1H)-yl)-2-hydroxypropyl)-6-phenyl-5,6-dihydro-8H-imidazo[2,1-c][1,4]oxazine-2-carboxamide] | 1000 to 5000 | –
10 to 1000 | 10 to 1000 | 10 to 1000 | O=C(NC[C@H](O)CN1CCc2ccccc2C1)c1cn2c(n1)COC(c1ccc(F)cc1)C2 (stereo partly drawn) [Example 116, N—((S)-3-(3,4-dihydroisoquinolin-2(1H)-yl)-2-hydroxypropyl)-6-(4-fluorophenyl)-5,6-dihydro-8H-imidazo[2,1-c][1,4]oxazine-2-carboxamide] | 10 to 1000 | 10 to 1000
1000 to 5000 | 10 to 1000 | – | O=C(NC[C@H](O)CN1CCc2ccccc2C1)c1cn2c(n1)CC[C@H](C(F)(F)F)C2 [Example 121B, (S)—N—((S)-3-(3,4-dihydroisoquinolin-2(1H)-yl)-2-hydroxypropyl)-6-(trifluoromethyl)-5,6,7,8-tetrahydroimidazo[1,2-a]pyridine-2-carboxamide] | 10 to 1000 | –
